Source: US6136336A, “JM216 formulations” (priority 1999, dated 2000)
Entries after “also recorded” stand apart in the source; their conditions may differ.

How the values were obtained:
[1] = Standard dissolution test (phosphate buffer pH 7.5, 37° C.); assay type: physicochemical; settings: phosphate buffer 1/15 M
From the text: The present inventors first attempted to reduce the particle size of the JM216 powder obtained from chemical synthesis by grinding or milling it to an amorphous state (as confirmed by x-ray diffraction pattern). The amorphous state indicates the disappearance of particles or crystalline drug and a particle size close to the molecular level. […] The addition of β-cyclodextrin or polymers to the JM216 during the grinding did allow obtaining the drug as an amorphous powder by reduction of the aggregation. […] The ratio of drug:β-cyclodextrin or drug:polymer also has some effect on solubility, with solubility generally increasing at higher β-cyclodextrin:drug or polymer:drug ratios. Ratios of drug:β-cyclodextrin or drug:polymer of from about 1:1 to about 1:15 (w/w) can be used with ratios of from about 1:4 to 1:15 being preferred and ratios of from about 1:9 to about 1:15 being most preferred.
Dissolution test: The ground mixture containing 5 mg. of JM216 was transferred directly into 50 ml of phosphate buffer (1/15 M, pH 7.5) kept at 37° C. and was stirred with a magnetic stirrer bar at 300 rpm. An aliquot of the solution was pipetted at the indicated time intervals and filtered through a 0.45 μm membrane filter. The concentration of the dissolved JM216 was determined by high performance liquid chromatography (HPLC).
Grinding of the JM216:β-cyclodextrin or JM216:polymer mixtures may be accomplished by standard procedures, e.g. automatic mortar and pestle machines or a hybridizer (milling machine). The time needed in the grinding process may be readily determined by simple test (period analysis of the mixture by x-ray diffraction studies). A suitable grinding time with the automatic mortar and pestle machine is three hours and with the hybridizer, five minutes.

[2] = cited from earlier work
[3] = Water-solubility of JM216 at 23° C.; assay type: physicochemical
From the text: Although the oral dosage form of JM216 being pursued in the clinic has obvious advantages over injectable platinum complexes such as cisplatin and carboplatin, it is reported by M. J. McKeage et al in Cancer Chemother. Pharmacol. 36: 451-458 (1995) that the current oral capsule form may have certain pharmacokinetic disadvantages.

[4] = In vitro drug absorption through excised rat rectum (Franz diffusion cell); assay type: in vitro ADME; settings: listed as JM216 bulk drug (non-amorphous)
Description: The rectum was freshly excised from each rat and was opened lengthwise using scissors. The excised rectum, serous membrane side down, was mounted on a Franz diffusion cell (reservoir volume 10 ml, 7 mm i.d. O ring flange). […] Gentamicin solution (10 mg/ml) was added to the reservoir fluid (phosphate buffer, pH 7.3) in the ratio of 1:100.
The various test samples were incorporated into standard suppository bases and then subjected to the in vitro drug absorption test. […] The suppository samples were prepared by fusion method melting the base at 50° C. for fatty bases or at 75° C. for polyethylene glycol water-soluble base. The drug was incorporated into the base at a concentration of 2 mg/80 mg base. Medium chain fatty acids (or Na salts thereof) and surface active agents were also added at the appropriate level.

[5] = oral capsule, dose levels ≥200 mg/m^2

Compound: CC(=O)[O][Pt]([NH2])([Cl])([Cl])([NH]C1CCCCC1)[O]C(C)=O [JM216, bis-acetato-ammine-dichloro-cyclohexylamine-platinum (IV)]
- Dissolved JM216 ([1]; 1 Min.): 0.2 mg/mL
- Dissolved JM216 ([1]; 5 Min.): 0.3 mg/mL
- Dissolved JM216 ([1]; 15 Min.): 0.5 mg/mL
- Dissolved JM216 ([1]; 30 Min.): 0.5 mg/mL
- Dissolved JM216 ([1]; 60 Min.): 0.5 mg/mL
- AUC (dose proportionality) [2, 5]: increased less than proportionally to dose
- Cmax (dose proportionality) [2, 5]: increased less than proportionally to dose
- interpatient pharmacokinetic variation [2, 5]: greater interpatient pharmacokinetic variation
- urinary platinum recovery [2, 5]: reduced urinary platinum recovery
- side effects seen with oral dosing ([2]; oral dosing): nausea and vomitting
- water-solubility [3]: 300 µg/mL
- absorption in the rat rectum model (in words) [4]: little absorbed in the form of a suspension in water or in fatty suppository bases; also recorded: absorbed to some extent when incorporated into the water-soluble base, polyethylene glycol (PEG)
